Measurements published in patent publication US20050146723A1, “Method for measuring surface plasmon resonance” (FUJI PHOTO FILM CO., LTD., priority 2003, published 2005).

Test system: trypsin
Test: Evaluation of leupeptin-binding ability on trypsin-immobilized chip by surface plasmon resonance
Settings: 10 min after initiation of replacement
Procedure: The solution in the above-describe dextran measurement chip was removed therefrom. Thereafter, 70 μl of a mixed solution consisting of 200 mM EDC (N-ethyl-N′-(3-dimethylaminopropyl)carbodiimide hydrochloride) and 50 mM NHS (N-hydroxysuccinimide) was added to the measurement chip, and it was then left for 10 minutes. The mixed solution was removed from the measurement chip, and the chip was then washed with 100 μl of water 3 times, and then with 100 μl of buffer 1 (100 mM HEPES (N-2-hydroxyethylpiperazin-N′-2-ethanesulfonic acid), 150 mM NaCl, 10 mM CaCl2) 3 times. The chip containing 100 μl of buffer 1 was installed in the surface plasmon resonance measurement device of the present invention. The inside of the chip was replaced with a trypsin solution (produced by dissolving trypsin in buffer 1 to a concentration of 1 mg/ml), and it was then left for 30 minutes, so as to immobilize trypsin. Thereafter, the inside of the chip was replaced with a 1 M ethanolamine solution, and it was then left for 10 minutes. Thereafter, the inside of the chip was washed with 100 μl of buffer 1 ten times. The amount of a change in resonance signals due to immobilization of trypsin was 2,000 RU.
With regard to the trypsin-immobilized chip of the present invention, the dielectric block was capped with silicon rubber, so as to produce a cell with an internal volume of 15 μl. In the case of such a block cell, the volume of the cell is determined with a space surrounded by the measurement chip and the cap. Two holes each having a diameter of 1 mm were formed through the silicon rubber used as a cap, and a Teflon tube having an inside diameter of 0.5 mm and an outside diameter of 1 mm was passed through each of these holes, so as to produce a flow channel. Likewise, a cap and a flow channel were produced for a reference chip. Thereafter, the two chips were connected in series, so as to produce a flow channel system. Each of the two chips in this flow channel system was installed in the surface plasmon resonance measurement device of the present invention.
The inside of the flow channel system was filled with buffer 2 (10 mM HEPES, 150 mM NaCl). Defining the state before the exchange of the liquid as a standard, a change in signals was measured at intervals of 0.5 seconds. The inside of the flow channel system was replaced with a leupeptin solution produced by dissolving leupeptin in buffer 2 to a concentration of 1 μg/ml) by each method described in Table 1. The level of noise generated on the reference chip side at 2 to 10 minutes after initiation of the replacement, and changes in signals on the trypsin-immobilized chip side and on the reference chip side at 10 minutes after initiation of the replacement, are shown in Table 1. In order to obtain binding detection data with high reliability, it is preferable that the width of noise level (the difference between the maximum and the minimum in a change in signals) be within 10 RU, and that the base line fluctuation, that is, the change in signals on the reference chip side be within 10 RU. More preferably, the above values are both within 5 RU.
The inside of the flow channel system was filled with buffer 2 (10 mM HBPES, 150 mM NaCl). Defining the state before the exchange of the liquid as a standard, a change in signals was measured at intervals of 0.5 seconds. The inside of the flow channel system was replaced with a leupeptin solution (produced by dissolving leupeptin in buffer 2 to a concentration of 1 μg ml) by each method described in Table 2. The level of noise generated on the reference chip side at 2 to 10 minutes after initiation of the replacement, and changes in signals on the trypsin-immobilized chip side and on the reference chip side at 10 minutes after initiation of the replacement, are shown in Table 2. […]

CC(=O)N[C@@H](CC(C)C)C(=O)N[C@@H](CC(C)C)C(=O)N[C@H](C=O)CCCNC(=N)N [leupeptin]
Signal change Immobilized chip (Table 1 method No. 1: leupeptin 1 μg/ml, flow 4 ml/min, exchange 0.125 min, termination 9.875 min, Ve/Vs 16.7): 19 RU
Signal change Immobilized chip (Table 1 method No. 2: leupeptin 1 μg/ml, flow 4 ml/min, exchange 0.25 min, termination 9.75 min, Ve/Vs 33.3): 21 RU
Signal change Immobilized chip (Table 1 method No. 3: leupeptin 1 μg/ml, flow 4 ml/min, exchange 1 min, termination 9 min, Ve/Vs 133.3): 20 RU
Signal change Immobilized chip (Table 1 method No. 4: leupeptin 1 μg/ml, flow 4 ml/min, exchange 1.5 min, termination 8.5 min, Ve/Vs 200.0): 21 RU
Signal change Immobilized chip (Table 1 method No. 5 (comparative): leupeptin 1 μg/ml, flow 4 ml/min, exchange 10 min, termination 0 min, Ve/Vs 1333.3): 12 RU
Signal change Immobilized chip (Table 1 method No. 6 (comparative): leupeptin 1 μg/ml, flow 2 ml/min, exchange 10 min, termination 0 min, Ve/Vs 666.7): 25 RU
Signal change Immobilized chip (Table 1 method No. 7 (comparative): leupeptin 1 μg/ml, flow 1 ml/min, exchange 10 min, termination 0 min, Ve/Vs 333.3): 18 RU
Signal change Immobilized chip (Table 1 method No. 8 (comparative): leupeptin 1 μg/ml, flow 0.5 ml/min, exchange 10 min, termination 0 min, Ve/Vs 166.7): 26 RU
Signal change Immobilized chip (Table 2 method No. 1: leupeptin 1 μg ml, flow 4 ml/min, exchange 0.125 min, termination 9.875 min, Ve/Vs 16.7): 19 RU
Signal change Immobilized chip (Table 2 method No. 2: leupeptin 1 μg ml, flow 4 ml/min, exchange 0.25 min, termination 9.75 min, Ve/Vs 33.3): 21 RU
Signal change Immobilized chip (Table 2 method No. 3 (comparative): leupeptin 1 μg ml, flow 4 ml/min, exchange 10 min, termination 0 min, Ve/Vs 1333.3): 12 RU
Signal change Immobilized chip (Table 2 method No. 4 (comparative): leupeptin 1 μg ml, flow 2 ml/min, exchange 10 min, termination 0 min, Ve/Vs 666.7): 25 RU
Signal change Immobilized chip (Table 2 method No. 5 (comparative): leupeptin 1 μg ml, flow 1 ml/min, exchange 10 min, termination 0 min, Ve/Vs 333.3): 18 RU
Signal change Immobilized chip (Table 2 method No. 6 (comparative): leupeptin 1 μg ml, flow 0.5 ml/min, exchange 10 min, termination 0 min, Ve/Vs 166.7): 26 RU
Signal change Immobilized chip (Table 2 method No. 7: leupeptin 1 μg ml, flow 0.2 ml/min, exchange 10 min, termination 0 min, Ve/Vs 66.7): 22 RU
Signal change Immobilized chip (Table 2 method No. 8: leupeptin 1 μg ml, flow 0.1 ml/min, exchange 10 min, termination 0 min, Ve/Vs 33.3): 20 RU
